For assay [1], the target named is T1, PAF specific receptor binding site on rabbit platelet plasma membranes (Oryctolagus cuniculus, UniProt G1TEI7).
T1 construct: 100 μg of the platelet plasma membrane suspension; from tissue; host or cells: rabbit platelet plasma membranes
Put plainly: Inhibition of 3H-PAF binding to rabbit platelet plasma membrane. The following applies: 1 h.
Method: The inhibition of H^3 -PAF binding to the rabbit platelet plasma membrane by a PAF-antagonist of Formula (I) was determined by a method employing isotopic labeling and filtration techniques. Generally, a series of Tris-buffered solutions of the selected antagonist at predetermined concentrations were prepared. […] After adding into a set of test tubes each with 100 μg of the platelet plasma membrane suspension and one of the Tris-buffer solutions described above, the resulting mixture in each test tube was incubated at 0° C. for about one hour or until the reaction was complete. Two control samples, one of which (C1) contains all the ingredients described above except the antagonist and the other (C2) contains C1 plus a 1000-fold excess of unlabelled PAF, were also prepared and incubated simultaneously with the test samples. After the incubation was completed, the contents of each test tube were filtered under vacuo through a Whatman GF/C fiberglass filter and the residue washed rapidly several times with a total of 20 ml cold (0°-5° C.) Tris-buffer solution. Each washed residue was then suspended in 10 ml scintillation solution (Aquasol 2, New England Nuclear, Conn.) and the radioactivity was counted in a Packard Tri-Carb 460CD Liquid Scintillation System. Defining the counts from a test sample as "Total binding with antagonist"; the counts from the control sample C1, as "Total binding C1 "; and the counts from the control sample C2 as "non-specific binding C2 ", the percent inhibition of each test antagonist can be determined by the following equation: [formula]

In assay [2] the test system is PAF-induced cutaneous vascular permeability. Briefly: Method I: oral inhibition of PAF-induced increase of cutaneous vascular permeability. In kind it is in vivo. The following applies: guinea pig, dose 50 mg/kg PO. An excerpt:
The specific PAF-antagonistic activities are further established by two in vivo assays (Modified procedure of Humphrey et al. Lab. Investigation, 46, 422 (1982)) following the protocols described below:
Method I: Protocol for the evaluation of the oral activity of PAF antagonists or the inhibition of PAF-induced increase of vasopermeability by PAF-antagonists
I. Animal species: 5 guinea pigs (400-500 g)
II. Material: 0.5% (w/v) aqueous methylcellulose solution sodium nembutol
2% Evans Blue solution: 2 g of Evans Blue in 100 ml of pH 7.5 Tris-Buffer solution
Tris-Buffer solution: 150 mM NaCl and 10 mM Tris/ml with pH adjusted to 7.5.
1. Weigh the guinea pigs. Label them as control, T1, T2, T3 and T4.
2. Fast the animals overnight.
3. Weigh the animals again after the fasting.
4. Ground and suspend a PAF antagonist of formula (I) with intensive sonication in 3 ml of 0.5% aqueous methylcellulose solution.
5. […]
8. […] In the meantime, shave the backs of the guinea pigs and get ready for the PAF injection. […]
15. Measure the absorbance of each supernatant from Step (14) ("skin sample") as well as the plasma extract from Step (13) ("plasma sample") at 620 nm with a Cary 210 spectrophotometer (Varian, Palo Alto, CA). […]

A further assay has as its system PAF. Briefly: PAF-antagonist activity (general comparison).
For assay [3], the system named is PAF-induced degranulation. Put plainly: Method II: inhibition of PAF-induced degranulation in rats. The following applies: oral dose of 50 mg/kg. Format: in vivo, rat.

T1 sequence (G1TEI7 1-342): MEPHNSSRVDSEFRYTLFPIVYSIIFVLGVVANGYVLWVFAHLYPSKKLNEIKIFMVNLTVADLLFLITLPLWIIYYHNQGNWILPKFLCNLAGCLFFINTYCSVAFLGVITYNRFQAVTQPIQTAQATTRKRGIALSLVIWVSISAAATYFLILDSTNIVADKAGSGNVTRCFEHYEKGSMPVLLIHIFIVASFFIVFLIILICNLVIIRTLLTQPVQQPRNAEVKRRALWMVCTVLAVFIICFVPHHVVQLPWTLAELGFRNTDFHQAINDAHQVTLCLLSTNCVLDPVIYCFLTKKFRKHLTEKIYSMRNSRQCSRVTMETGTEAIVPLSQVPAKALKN

As a reminder, the inhibition is the percentage by which the read-out fell short of the control. Low readings indicate a response near the control, high ones a response far below the control. In assay [1], `COc1ccc(OC)c(C2OC(c3cc(OC)ccc3OC)C(C)C2C)c1` (stereo not shown) showed an inhibition at 10 µM of 52%. In turn, `COC(=O)[C@@H]1[C@@H](C(=O)OC)[C@H](c2cc(OC)c(O)cc2Cl)O[C@@H]1c1cc(OC)c(O)cc1Cl` (relative stereo) returned an inhibition at 1 µM in assay [1] of 15%. In the case of `COC[C@H]1[C@@H](C)[C@@H](c2ccc(OC)c(OC)c2)O[C@H]1c1ccc(OC)c(OC)c1` (relative stereo) [R=CH3; R1=CH2OCH3; Ar=3,4-dimethoxyphenyl; Ar1=Same as Ar; isomer (4)], at 5 µM the inhibition in assay [1] was 62%. In assay [1] (dose 0.5 (μm)), `COc1cc([C@H]2O[C@@H](c3cc(OC)c(OC)c(OC)c3)[C@H](C)[C@H]2C)cc(OC)c1OC` (relative stereo) [R=CH3; R1=CH3; Ar=3,4,5-trimethoxyphenyl; Ar1=Same as Ar; isomer (1)] came in with an inhibition at 0.5 µM of 42%. Also, the inhibition at 5 µM in assay [1] worked out at 61%. In assay [1], `COc1cc([C@@H]2O[C@@H](c3cc(OC)c(OC)c(OC)c3)[C@H](C)[C@H]2C)cc(OC)c1OC` (relative stereo) [R=CH3; R1=CH3; Ar=3,4,5-trimethoxyphenyl; Ar1=Same as Ar; isomer (2)] showed an inhibition at 1 µM of 2%, an inhibition at 5 µM of 39% and an inhibition at 20 µM of 63%. In assay [1], `COc1ccc([C@H]2O[C@@H](c3ccccc3)[C@@H](C)[C@H]2C)cc1OC` (relative stereo) [R=CH3; R1=CH3; Ar=3,4-dimethoxyphenyl; Ar1=phenyl; isomer (4)] returned an inhibition at 1 µM of 9% and an inhibition at 10 µM of 100%.

In the case of `C[C@@H]1[C@H](C)[C@H](c2ccccc2)O[C@@H]1c1ccc2c(c1)OCO2` (relative stereo) [R=CH3; R1=CH3; Ar=3,4-methylenedioxyphenyl; Ar1=phenyl; isomer (4)], in assay [1], the inhibition at 1 µM was found to be 11% and testing at 10 µM gave an inhibition of 45%. `COc1cccc([C@H]2O[C@@H](c3ccccc3)[C@@H](C)[C@H]2C)c1` (relative stereo) [R=CH3; R1=CH3; Ar=3-methoxyphenyl; Ar1=phenyl; isomer (4)]: in assay [1], the inhibition at 1 µM stood at 28% and the inhibition at 10 µM turned out to be 49%.

For `COc1ccc([C@H]2O[C@@H](c3ccc(OC)cc3)[C@H](C)[C@H]2C)cc1` (relative stereo) [R=CH3; R1=CH3; Ar=4-methoxyphenyl; Ar1=Same as Ar; isomer (1)], the inhibition at 10 µM in assay [1] was 47%.

In assay [1], `C[C@@H]1[C@@H](C)[C@H](c2ccccc2)O[C@@H]1c1ccccc1` (relative stereo) [R=CH3; R1=CH3; Ar=phenyl; Ar1=phenyl; isomer (1)] showed an inhibition at 5 µM of 13%. Take `COC(=O)[C@@H]1[C@H](C)[C@H](c2ccc(OC)c(OC)c2)O[C@@H]1c1ccc(OC)c(OC)c1` (relative stereo) [R=CO2CH3; R1=CH3; Ar=3,4-dimethoxyphenyl; Ar1=Same as Ar; isomer (4)]: the inhibition at 1 µM in assay [1] stood at 33%. The same measure, in the same setting: the same measure for `CCOC(=O)[C@@H]1[C@@H](C(=O)OCC)[C@H](c2ccc(OC)c(OC)c2)O[C@@H]1c1ccc(OC)c(OC)c1` (relative stereo) [R=CO2Et; R1=CO2Et; Ar=3,4-dimethoxyphenyl; Ar1=Same as Ar; isomer (1)]: 63%; for `COc1ccc([C@H]2O[C@@H](c3ccc(OC)c(OC)c3)[C@@H](C)[C@H]2C(=O)O)cc1OC` (relative stereo) [R=COOH; R1=CH3; Ar=3,4-dimethoxyphenyl; Ar1=Same as Ar; isomer (4)]: 18%.

In assay [1], `COc1cc([C@H]2O[C@@H](c3cc(OC)c(OC)c(OC)c3)[C@@H](C)[C@H]2C)cc(OC)c1OC` [R=CH3; R1=CH3; Ar=3,4,5-trimethoxyphenyl; Ar1=Same as Ar; isomer (4)] yielded an inhibition at 1 µM of 12%, an inhibition at 5 µM of 48% and an inhibition at 20 µM of 68%. A word on the % inhibition: it is the share of the control response that was lost under treatment. Low values mean a weak effect, high ones a strong effect. Turning to `COc1ccc([C@H]2O[C@@H](c3ccc(OC)c(OC)c3)[C@@H](C)[C@H]2C)cc1OC` [R=CH3; R1=CH3; Ar=3,4-dimethoxyphenyl; Ar1=Same as Ar; isomer (4), All cis-3,4-Dimethyl-2,5-bis(3,4-dimethoxyphenyl)-tetrahydrofuran], in assay [2], the “% inhibition” value is listed as 30%. Also, in the assay with PAF, the “PAF-antagonist activity, rank in words” value was “most active PAF-antagonist”. In addition, the “inhibition of PAF-induced degranulation” value in assay [3] was determined as 49%.
